Legend:
[1] = tested on: endogenous demethylase activity; assay: Active demethylation of in vitro methylated CMV-GFP transiently transfected into HEK 293 cells (HpaII/MspI digestion, Southern blot); conditions: for percentage of methylated GFP remaining (inhibition of TSA induced active demethylation of methylated CMV-GFP): 0.3 μM TSA, 2, 4, 8 mM compound, harvested 72 hours post transfection
[2] = tested on: CMV-GFP expression in HEK 293 cells; assay: GFP expression from transfected CMV-GFP in HEK 293 cells (Western blot); conditions: for TSA induced GFP expression of methylated CMV-GFP: 0.3 μM TSA, increasing amounts of compound (mM)
[3] = molecular target: T1, human MBD2/dMTase (Homo sapiens, UniProt Q9UBB5); assay: In vitro demethylation assay with recombinant MBD2/dMTase; format: biochemical; conditions: for conversion of methyl-dCMP to dCMP by MBD2/dMTase: 24 hours at 37° C.
T1 construct: made in house; host or cells: SF9 insect cells (baculovirus, transfer vector pBlueBacHis2 C)
Protocol: AdoMet preparations for in vitro studies—AdoMet was prepared as a 50 mM solution in distilled water either by freeze drying a 32 mM AdoMet solution, which contained 10% ethanol and 5 mM sulfuric acid (New England Biolabs) immediately before use or by dissolving lyophilized powder (SIGMA) in distilled water. To control for possible nonspecific effects of remnants of the AdoMet storage buffer we freeze dried a solution of 5 mM sulfuric acid and 10% ethanol under the same conditions as done with the AdoMet solution and added distilled water after lyophilizing. AdoHcy was purchased from SIGMA and dissolved in distilled water at a 50 mM concentration.
Purification of recombinant MBD2/dMTase from SF9 cells—A fragment containing human MBD2/dMTase was excised from pCR2.1-dMTase (10) with BamHI and XhoI and transferred to the Baculovirus expression transfer vector pBlueBacHis2 C (Invitrogen). PBlueBacHis2 C-MBD2/dMTase and Bac-N-Blue viral DNA were co-transfected into the SF9 insect cell line, and recombinant viruses were isolated, identified and amplified according to the manufacturer's protocol (Invitrogen) with no modifications. High titer P3 viral stocks were used for infections. Insect SF9 cells were cultured in spinner flasks to a density of 2.5×10^6 cells/ml in Grace's Insect Cell Culture Medium Supplemented (1×) from Life Technologies. For infection, 5×10^6 cells were plated in 10 cm tissue culture plates (Sarstedt) and allowed to settle and attach for 30 minutes. The culture medium was removed and was replaced with 10 ml of the same medium containing MBD2/dMTase virus at a multiplicity of infection of 10. The cells were cultured with the virus for 5 days at 27° C. and were then harvested by scraping in cold phosphate buffered saline. Cell pellets from 10 plates were frozen and kept at −70° C. until they were used for enzyme purification. Frozen pellets were thawed in 5 ml of lysis buffer (10 mM Tris-HCl pH 8.0, 5 mM MgCl2, 500 mM NaCl, 0.05% Tween 20, 10% glycerol and 10 mM imidazole) containing 1 μg/ml of the following protease inhibitors: aprotinin, leupeptin and pefablock. Protease inhibitors were added to all the solutions used in the purification. The homogenates were subjected to two cycles of freezing and thawing (5 minutes per step). DNA in the homogenate was sheered by passing through a 18.5 gauge needle 10 times. The extracts were then subjected to 15 cycles of sonication (10 seconds burst, 10 seconds gap per cycle at 20% of maximal output). The extracts were centrifuged at 10,000×g for 35 minutes. The supernatant was transferred into a fresh tube and was recentrifuged for additional 25 minutes at 15,000×g. The extract was filtered through a 5 micron filter to remove any particulate matter and the buffer was exchanged on a PD-10 buffer exchange column (Amersham Pharmacia) with buffer L (10 mM Tris-HCl pH 8.0, 10 mM MgCl2) containing 50 mM NaCl. Recombinant MBD2/dMTase was partially purified by Q-sepharose (Pharmacia) ion exchange chromatography. Q-sepharose beads (1 ml of swollen beads) were washed extensively and preequilibrated with buffer L containing 50 mM NaCl and divided into 3 equal aliquots. The cell extracts were sequentially bound three times to the 3 aliquots of Q-sepharose beads in batch in 15 ml tubes by shaking gently on a Nutator for 45 minutes at 4° C. […]

[4] = tested on: A549 human lung carcinoma cells; assay: Soft agar assay (anchorage independent growth), A549 cells; format: cell-based; conditions: single 24 hour treatment at 4 mM, colonies counted 21 days after plating
Protocol: (§1) For analysis of growth in soft agar, 3 ×10^3 cells were seeded in triplicate onto a six well dish in 4 ml of complete medium containing 0.33% agar solution at 37° C. (34). Cells were fed with 2 ml of medium twice weekly. The assay was performed in triplicate, and colonies were counted 21 days after plating for A549 cells, and 7 days after plating for HEK 293 cells.
(§2) AdoMetinhibits the tumorigenic properties of two different transformed cells lines, A549 human lung carcinoma cells and HEK 293 human embryonal kidney cells—It is well documented that a correlation exists between reduced intracellular AdoMet (either as a consequence of decreased folate intake or pharmacological intervention) and an increase in cell proliferation and tumorigenesis (2, 19). […] We therefore decided to test whether treatment with AdoMet could inhibit the transformation potential of HEK 293 cells, which were shown here to be responsive to AdoMet inhibition of demethylase. We also tested AdoMet effects on the transformed state of A549, a human lung non-small cell carcinoma cell line, to exclude the possibility that AdoMet effects are an idiosyncrasy of HEK 293 cells. Cells were treated for 24 hours with either AdoMet or AdoHcy at a concentration of 4 mM. An equal number of living cells were seeded onto soft agar to test their anchorage independent growth, an indicator of tumorigenesis in vitro. […]

[5] = tested on: HEK 293 human embryonal kidney cells; assay: Soft agar assay (anchorage independent growth), HEK 293 cells; format: cell-based; conditions: single 24 hour treatment at 4 mM, colonies counted 7 days after plating
Protocol: as §1, §2

T1 sequence (Q9UBB5 150-411 limits assumed): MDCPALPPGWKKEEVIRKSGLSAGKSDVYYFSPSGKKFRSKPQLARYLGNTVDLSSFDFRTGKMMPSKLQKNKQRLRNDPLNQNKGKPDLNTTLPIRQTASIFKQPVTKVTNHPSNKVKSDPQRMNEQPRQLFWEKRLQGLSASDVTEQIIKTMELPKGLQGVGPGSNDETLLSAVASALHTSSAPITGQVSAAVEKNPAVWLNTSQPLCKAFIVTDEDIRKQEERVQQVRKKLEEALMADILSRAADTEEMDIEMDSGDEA

SMILES | demethylation of methylated CMV-GFP by endogenous demethylase activity ([1]; methylated CMV-GFP, 0.3 μM TSA alone) | GFP expression of methylated CMV-GFP ([2]; methylated CMV-GFP, TSA alone) | conversion of methyl-dCMP to dCMP by MBD2/dMTase ([3]; 2 mM AdoMet) | conversion of methyl-dCMP to dCMP by MBD2/dMTase ([3]; AdoMet concentrations higher than 4 mM) | inhibition of demethylation attained ([3]; maximum inhibition on dose curve, average of 3 independent experiments) [%] | percentage of methylated GFP remaining (inhibition of TSA induced active demethylation of methylated CMV-GFP) ([1]; methylated CMV-GFP) | de novo methylation of unmethylated CMV-GFP ([1]; unmethylated CMV-GFP, 8 mM AdoMet) | colony formation in soft agar (anchorage independent growth) [4] | TSA induced GFP expression of methylated CMV-GFP ([2]; methylated CMV-GFP) | induction of non-methylated GFP by TSA ([2]; unmethylated CMV-GFP, 0.3 μM TSA plus AdoMet) | colony formation in soft agar (anchorage independent growth) [5] | effect of AdoHcy on inhibition of the demethylase reaction by AdoMet (competition experiment) ([3]; increasing AdoHcy in presence of 10 mM AdoMet, up to tenfold concentration excess of AdoHcy) | inhibition of demethylation activity of MBD2/dMTase ([3]; increasing concentrations of AdoHcy)
CC(/C=C/C(=O)NO)=C\[C@@H](C)C(=O)c1ccc(N(C)C)cc1 [TSA, Trichostatin A] | nearly complete demethylation | dramatic induction | – | – | – | – | – | – | – | – | – | – | –
C[S+](CC[C@H](N)C(=O)[O-])C[C@H]1O[C@@H](n2cnc3c(N)ncnc32)[C@H](O)[C@@H]1O (some centres unmarked) [AdoMet, S-Adenosylmethionine] | – | – | greatly reduced | abolished completely | 100 | increases in a dose dependent manner | does not get de novo methylated | no colonies are formed | decreased in a dose dependent fashion | no significant effect | only a minimal number of colonies | – | –
Nc1ncnc2c1ncn2[C@@H]1O[C@H](CSCC[C@H](N)C(=O)O)[C@@H](O)[C@H]1O [AdoHcy, S-adenosylhomocysteine] | – | – | – | – | – | insignificant effect | – | does not inhibit | no significant effect | – | does not inhibit | does not diminish inhibition | no inhibition

From patent US20050003378A1, “Inhibitor of demethylase, antitumorigenic agent, and an in vitro assay for demethylase inhibitors” (priority 2002, published 2005)
